Experimental data as given in US6362207B1, “Methods of treating viral infections with benzimidazoles” (priority 1995, dated 2002).
Where “and” joins values, the source holds several entries; their conditions need not be identical. Equal values may be shown once.

Key:
SK-MES cells (lung) = assay: Apoptosis study (TdT assay) and cell growth; assay type: cell-based, human
Description: Summary of test results: The extent of apoptosis is measured in human tumor cell lines after treatment for 1, 2, 3 and 4 days with carbendazim. At each of these time points, the cells are harvested and assayed using the terminal deoxynucleotidyl transferase (TdT) assays. Both microscopy and flow cytometry were used for the TdT assay.
In MCF7, HT29, B16 and SK-MES cell lines, there was a concentration dependent effect on cell growth. […] After completion of the studies on the MCF7 and HT29 cell lines, it was evident that the 0.1 μg/ml concentration had little effect on either apoptosis or cell growth. Therefore subsequent assays were with 5 μg/ml instead of 0.1 μg/ml.
The growth of SK-MES cells was slowed done by all concentrations of carbendazim past day 1.

Oral LD50 = details: mouse, in vivo, mice
[1] = test system: HIV-1 in ACH-2 cells (T cell line A3.01); assay: Additional chronic HIV studies, T cells; assay type: cell-based; details: concentration not given
Description: Chronic HIV-1 infected cells U1 were derived from an acute HIV-1 infection of the promonocytic cell line, U937. The chronic HIV-1 infected cells, ACH-2 were derived from an acute HIV-1 infection of the T cell line, A3.01.
These cells were cultured in medium and the phorbol ester, PMA. PMA causes the cells (both U1 and ACH-2) to be activated and not divide but it also causes the U-1 cells to differentiate. […] Cell viability was measured when these cell lines were treated with the test compound.
Both cell lines constituitively produce a small amount of HIV-1. ACH-2 cell lines tend to produce more HIV-1 than U1 cells as shown by p24 ELISA. When either cell line is cultured in the presence of PMA there is an increase in the quantity of HIV-1 produced as measured by the p24 antigen ELISA.
In addition, the number of […] positive HIV mRNA expressing cells per microscopic field is measured. Comparisons can be made from these numbers since the same number of cells were adhered to the glass slides for each drug concentration 10×10^6 cells/ml).
These cells were treated with test samples. […] The positive control was interferon which suppressed HIV monocytes replication by 80%.

HIV = assay: microbe, parasite or virus in culture; assay type: cell-based
[2] = test system: Human Tumor Colony Forming Units; assay: In Vitro Human Tumor Colony Forming Units Test; details: for tumors that had ≧50% survival / tumors tested, total line: all tumor types

**Q.** What does the source list for `COC(=O)Nc1nc2ccccc2[nH]1` [carbendazim, 2-methoxycarbonylamino-benzimidazole]?
**A.** cell growth (SK-MES cells (lung); all concentrations, past day 1): slowed done; percent of apoptosis (SK-MES cells (lung); days 1-4 microscopic TdT assay, days 3 and 4 flow cytometry): concentration-response effect; LD50 (Oral LD50): 11000 mg/kg; increase of T-cell HIV replication [1]: 44%; therapeutic index (TI), ratio of toxic dose to efficacious dose (HIV): 1.8; inhibition at 4 µg/mL (HIV; Human immunodeficiency virus 1, read-out: inhibition of viral replication): 100%; positive results / tumors tested ([2]; 1 Hour Exposure, 0.5 μg/ml): 0/1; positive results / tumors tested ([2]; 1 Hour Exposure, 5.0 μg/ml): 0/1; positive results / tumors tested ([2]; 1 Hour Exposure, 50.0 μg/ml): 0/1; tumors that had ≧50% survival / tumors tested ([2]; Brain, 2nd '1 Hour Exposure' group, c4-c7 = 0.5, 5.0, 10, 50 μg/ml): 0/2 and 2/2; tumors that had ≧50% survival / tumors tested ([2]; Breast, 1 Hour Exposure, c1-c3 = 0.5, 5.0, 50 μg/ml): 0/1; tumors that had ≧50% survival / tumors tested ([2]; Breast, 2nd '1 Hour Exposure' group, c4-c7 = 0.5, 5.0, 10, 50 μg/ml): 0/3 and 0/4 and 0/1 and 2/3; tumors that had ≧50% survival / tumors tested ([2]; Cervix, 2nd '1 Hour Exposure' group, c4-c7 = 0.5, 5.0, 10, 50 μg/ml): 0/1 and 1/1; tumors that had ≧50% survival / tumors tested ([2]; Colon, 1 Hour Exposure, c1-c3 = 0.5, 5.0, 50 μg/ml): 0/1; tumors that had ≧50% survival / tumors tested ([2]; Colon, 2nd '1 Hour Exposure' group, c4-c7 = 0.5, 5.0, 10, 50 μg/ml): 0/5 and 1/5 and 2/5; positive results / tumors tested ([2]; Continuous Exposure, 0.5 μg/ml): 0/14; positive results / tumors tested ([2]; Continuous Exposure, 5.0 μg/ml): 3/14; positive results / tumors tested ([2]; Continuous Exposure, 50.0 μg/ml): 5/14; tumors that had ≧50% survival / tumors tested ([2]; Head & Neck, 1 Hour Exposure, c1-c3 = 0.5, 5.0, 50 μg/ml): 0/1; tumors that had ≧50% survival / tumors tested ([2]; Head & Neck, 2nd '1 Hour Exposure' group, c4-c7 = 0.5, 5.0, 10, 50 μg/ml): 0/1 and 1/1; tumors that had ≧50% survival / tumors tested ([2]; Kidney, 1 Hour Exposure, c1-c3 = 0.5, 5.0, 50 μg/ml): 0/1; tumors that had ≧50% survival / tumors tested ([2]; Kidney, 2nd '1 Hour Exposure' group, c4-c7 = 0.5, 5.0, 10, 50 μg/ml): 0/2 and 1/2; tumors that had ≧50% survival / tumors tested ([2]; Lung, non-small cell, 1 Hour Exposure, c1-c3 = 0.5, 5.0, 50 μg/ml): 0/1; tumors that had ≧50% survival / tumors tested ([2]; Lung, non-small cell, 2nd '1 Hour Exposure' group, c4-c7 = 0.5, 5.0, 10, 50 μg/ml): 0/6 and 2/6 and 0/1 and 2/5; tumors that had ≧50% survival / tumors tested ([2]; Melanoma, 1 Hour Exposure, c1-c3 = 0.5, 5.0, 50 μg/ml): 0/2 and 1/2; tumors that had ≧50% survival / tumors tested ([2]; Melanoma, 2nd '1 Hour Exposure' group, c4-c7 = 0.5, 5.0, 10, 50 μg/ml): 0/3 and 1/3 and 2/3; tumors that had ≧50% survival / tumors tested ([2]; Mesothelioma, 2nd '1 Hour Exposure' group, c4-c7 = 0.5, 5.0, 10, 50 μg/ml): 0/1; tumors that had ≧50% survival / tumors tested ([2]; Ovary, 1 Hour Exposure, c1-c3 = 0.5, 5.0, 50 μg/ml): 0/3; tumors that had ≧50% survival / tumors tested ([2]; Ovary, 2nd '1 Hour Exposure' group, c4-c7 = 0.5, 5.0, 10, 50 μg/ml): 0/1 and 2/13 and 10/13; tumors that had ≧50% survival / tumors tested ([2]; Sarcoma, 1 Hour Exposure, c1-c3 = 0.5, 5.0, 50 μg/ml): 0/1 and 1/1; tumors that had ≧50% survival / tumors tested ([2]; Sarcoma, 2nd '1 Hour Exposure' group, c4-c7 = 0.5, 5.0, 10, 50 μg/ml): 0/1 and 1/1; tumors that had ≧50% survival / tumors tested ([2]; Stomach, 2nd '1 Hour Exposure' group, c4-c7 = 0.5, 5.0, 10, 50 μg/ml): 0/1 and 1/1; tumors that had ≧50% survival / tumors tested ([2]; Unknown Primary, 2nd '1 Hour Exposure' group, c4-c7 = 0.5, 5.0, 10, 50 μg/ml): 0/1; tumors that had ≧50% survival / tumors tested ([2]; Uterus, 2nd '1 Hour Exposure' group, c4-c7 = 0.5, 5.0, 10, 50 μg/ml): 0/3 and 2/3; tumors that had ≧50% survival / tumors tested, total line ([2]; 1 Hour Exposure, c1-c3 = 0.5, 5.0, 50 μg/ml): 0/11 and 2/11; tumors that had ≧50% survival / tumors tested, total line ([2]; 2nd '1 Hour Exposure' group, c4-c7 = 0.5, 5.0, 10, 50 μg/ml): 0/4 and 6/44 and 0/3 and 27/41
